Patent US12492163B2, “9H-fluorene derivatives or their pharmaceutically acceptable salts” (priority 2020, dated 2025)

Columns and labels:
[1] = molecular target: horse plasma butyrylcholinesterase (eqBuChE) (Equus caballus (Horse), UniProt P81908); test: Ellman's test, inhibition of horse plasma butyrylcholinesterase; format: biochemical
Procedure, shortened: (§1)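 Modified Ellman assay: compound preincubated 5 min with enzyme and DTNB in 0.1 M phosphate buffer pH 8.0 at 25° C (eqBuChE) or 36° C (hBuChE), then butyrylthiocholine added; absorbance change at 412 nm read after 5 min. Screening at 10 μM (eqBuChE) or 1 μM (hBuChE); IC50 by non-linear regression, triplicates.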

[2] = molecular target: human plasma butyrylcholinesterase (hBuChE) (Homo sapiens (Human), UniProt P06276); test: Ellman's test, inhibition of human plasma butyrylcholinesterase; format: biochemical
human plasma butyrylcholinesterase (hBuChE), sequence (P06276 29-602): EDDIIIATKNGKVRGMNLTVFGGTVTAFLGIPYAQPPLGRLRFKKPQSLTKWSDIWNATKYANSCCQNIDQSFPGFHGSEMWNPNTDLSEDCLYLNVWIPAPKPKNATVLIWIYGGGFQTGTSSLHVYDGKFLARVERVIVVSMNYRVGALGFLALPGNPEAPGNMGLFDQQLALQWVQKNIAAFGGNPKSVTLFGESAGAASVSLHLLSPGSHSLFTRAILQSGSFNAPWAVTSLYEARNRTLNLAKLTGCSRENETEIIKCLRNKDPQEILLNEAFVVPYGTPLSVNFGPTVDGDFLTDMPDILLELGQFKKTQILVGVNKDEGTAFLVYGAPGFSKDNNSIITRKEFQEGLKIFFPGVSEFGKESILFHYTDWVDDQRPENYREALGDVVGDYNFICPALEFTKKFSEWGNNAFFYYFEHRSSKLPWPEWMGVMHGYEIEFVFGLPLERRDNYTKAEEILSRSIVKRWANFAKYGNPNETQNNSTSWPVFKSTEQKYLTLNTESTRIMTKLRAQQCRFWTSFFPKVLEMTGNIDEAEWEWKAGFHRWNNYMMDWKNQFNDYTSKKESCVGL
Procedure, shortened: as §1

mGAT1 = mGAT1 (Mus musculus (Mouse), UniProt P31648); test: [3H]GABA uptake inhibition, mGAT1 in HEK293 cells; format: cell-based; settings: GABA reuptake
Experimental: (§2) Exemplary compounds according to the invention were screened at the Ludwig-Maximilian University of Munich to determine the inhibitory ability towards four mouse GAT transporters (mGAT1-mGAT4). […] The biological material was stably transfected human embryonic kidney HEK293 cells, expressing genes to the appropriate transporters. The generated radioactivity was measured with a liquid scintillation counter. […] These determinations were made according to the procedure described in detail in A. Kragler, G. Höfner, K. T. Wanner, Novel parent structures for inhibitors of the murine GABA transporters mGAT3 and mGAT4, Eur. J. Pharmacol. 519 (2005) 43-47.

mGAT2 = mGAT2 (Mus musculus (Mouse), UniProt P31651); test: [3H]GABA uptake inhibition, mGAT2 in HEK293 cells; format: cell-based; settings: inhibitor at 100 μM; remaining reuptake
mGAT2, sequence (P31651 whole entry): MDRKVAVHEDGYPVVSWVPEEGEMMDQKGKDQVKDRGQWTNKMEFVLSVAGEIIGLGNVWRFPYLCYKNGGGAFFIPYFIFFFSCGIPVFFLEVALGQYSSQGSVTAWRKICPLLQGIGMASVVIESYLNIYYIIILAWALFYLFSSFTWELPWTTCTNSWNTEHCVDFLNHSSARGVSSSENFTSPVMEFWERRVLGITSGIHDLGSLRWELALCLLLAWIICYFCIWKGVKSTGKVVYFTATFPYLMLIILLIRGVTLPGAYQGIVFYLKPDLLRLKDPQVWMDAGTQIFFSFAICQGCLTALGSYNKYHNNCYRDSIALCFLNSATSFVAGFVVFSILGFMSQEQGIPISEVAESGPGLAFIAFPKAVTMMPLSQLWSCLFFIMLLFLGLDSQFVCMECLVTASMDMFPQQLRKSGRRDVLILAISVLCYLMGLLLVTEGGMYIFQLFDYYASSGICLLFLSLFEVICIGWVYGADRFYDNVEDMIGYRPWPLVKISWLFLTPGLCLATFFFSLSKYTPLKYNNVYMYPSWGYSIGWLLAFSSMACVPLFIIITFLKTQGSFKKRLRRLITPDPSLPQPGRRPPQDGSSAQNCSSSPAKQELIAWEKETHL
Experimental: as §2

mGAT3 = mGAT3 (Mus musculus (Mouse), UniProt P31649); test: [3H]GABA uptake inhibition, mGAT3 in HEK293 cells; format: cell-based; settings: GABA reuptake
mGAT3, sequence (P31649 whole entry): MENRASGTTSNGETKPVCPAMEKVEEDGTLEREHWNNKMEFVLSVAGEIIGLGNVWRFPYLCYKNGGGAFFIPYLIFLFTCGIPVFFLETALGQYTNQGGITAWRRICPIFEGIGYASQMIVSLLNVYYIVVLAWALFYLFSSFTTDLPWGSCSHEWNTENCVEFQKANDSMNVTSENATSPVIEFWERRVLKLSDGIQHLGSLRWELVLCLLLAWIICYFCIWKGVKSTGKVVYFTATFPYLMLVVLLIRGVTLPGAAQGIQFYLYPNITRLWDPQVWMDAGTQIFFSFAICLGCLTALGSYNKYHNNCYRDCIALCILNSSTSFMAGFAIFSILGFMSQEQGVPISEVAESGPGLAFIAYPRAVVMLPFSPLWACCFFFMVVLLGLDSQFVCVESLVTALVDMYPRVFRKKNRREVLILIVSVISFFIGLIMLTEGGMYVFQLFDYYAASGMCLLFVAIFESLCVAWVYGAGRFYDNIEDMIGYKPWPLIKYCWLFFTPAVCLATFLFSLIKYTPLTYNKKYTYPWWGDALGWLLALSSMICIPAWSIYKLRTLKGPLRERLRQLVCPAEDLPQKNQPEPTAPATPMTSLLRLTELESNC
Experimental: as §2

C57BL/6J mice = test: Morris water maze test (scopolamine); format: in vivo, Mus musculus
Experimental: The research was conducted at the Department of Pharmacodynamics, Faculty of Pharmacy, Jagiellonian University in Krakow. All procedures were approved by the 1st and 2nd Local Ethics Committee for Animal Experiments in Krakow (consent no. 53/2017 and 250/2019) and were performed in accordance with the applicable European Union regulation (86/609/EEC). Males of two different strains of domestic mice (Mus musculus) were used in the study: Albino Swiss CD-1 (body weight approx. 20-24 g, age approx. 6 weeks) and C57BL/6J mice (body weight approx. 18-22 g, age approx. 6 weeks). […]
At this stage of the study, each mouse underwent four trials every day (trial interval approx. 1 hour). […] During the acquisition (learning) phase, the time and distance traveled to find the platform were measured. Additionally, the trajectories of movement in the pool were analyzed. […] The latency of finding the place where the platform was previously (during the acquisition/learning phase) was measured, as well as the number of crossings through the zone, where the platform was in the acquisition phase. In addition, the total residence time and distance traveled in the relevant quadrant of the pool (in the NW zone where the platform was at the time of acquisition) were measured, as well as the speed and total distance traveled by the animal during the 60 s of the test. […]

horse plasma butyrylcholinesterase (eqBuChE), sequence (P81908 whole entry): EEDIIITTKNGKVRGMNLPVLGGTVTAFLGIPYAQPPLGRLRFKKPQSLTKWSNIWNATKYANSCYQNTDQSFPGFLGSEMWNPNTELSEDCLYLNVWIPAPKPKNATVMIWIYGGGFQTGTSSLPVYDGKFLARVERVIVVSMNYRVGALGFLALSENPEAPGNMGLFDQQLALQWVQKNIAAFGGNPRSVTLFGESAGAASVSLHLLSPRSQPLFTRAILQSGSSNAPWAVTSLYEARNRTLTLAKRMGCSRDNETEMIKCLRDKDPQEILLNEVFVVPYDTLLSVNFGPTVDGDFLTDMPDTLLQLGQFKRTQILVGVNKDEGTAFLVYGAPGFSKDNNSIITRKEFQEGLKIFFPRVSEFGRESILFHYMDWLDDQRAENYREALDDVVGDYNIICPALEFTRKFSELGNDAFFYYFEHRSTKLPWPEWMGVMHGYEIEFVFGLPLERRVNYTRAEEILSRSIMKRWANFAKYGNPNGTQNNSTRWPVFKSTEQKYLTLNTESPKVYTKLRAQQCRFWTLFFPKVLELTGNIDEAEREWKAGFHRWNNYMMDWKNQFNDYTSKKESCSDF

What does the source list for `O[C@H](CNCC1CC1)[C@H](Cc1ccccc1)NC1c2ccccc2-c2ccccc21` [JT-3, (2R,3S)-3-((9H-fluoren-9-yl)amino)-1-((cyclopropylmethyl)amino)-4-phenylbutan-2-ol]?
IC50 [1]: 313 nM; IC50 [2]: 207 nM; pIC50 (+/−SEM) mGAT1 (mGAT1): 4.96; percentage of [3H]GABA reuptake retained, mGAT2 (mGAT2): 51%; pIC50 (+/−SEM) mGAT3 (mGAT3): 5.13 +/− 0.04; latency to find the hidden platform, acquisition phase vs scopolamine control (C57BL/6J mice; 10 mg/kg i.p., fifth day of the test, p<0.01): statistically significant difference; recall phase parameters (time, crossings, distance, entries in NW zone) (C57BL/6J mice; seventh day, 10 mg/kg i.p. on days 1-6): did not affect any of the parameters studied
